Test results as given in article PMC9246869, “Allosteric inhibition of PPM1D serine/threonine phosphatase via an altered conformational state” (Nature Communications, 2022).
Values joined by “and” are separate entries in the source; they are usually repeats but may differ in a detail not shown here. Identical values can stand only once.

Assays:
[1] = molecular target: T1, PPM1DΔflap (Homo sapiens, UniProt O15297, DEL219-231/DEL235-284/E287S/S285N); assay: Differential scanning fluorimetry (DSF); type: binding; conditions: PPM1D Dflap, individual trials; in °C (unit assumed)
T1 construct: PPM1D1–218-GGSNGS-288–420 (PPM1D∆flap); His(6)-SUMO (N, cleaved yes); made in house; host or cells: E. coli BL21 (DE3)
T1 sequence (O15297 with tags, fused parts or gaps DEL219-231/DEL235-284/S285N/E287S): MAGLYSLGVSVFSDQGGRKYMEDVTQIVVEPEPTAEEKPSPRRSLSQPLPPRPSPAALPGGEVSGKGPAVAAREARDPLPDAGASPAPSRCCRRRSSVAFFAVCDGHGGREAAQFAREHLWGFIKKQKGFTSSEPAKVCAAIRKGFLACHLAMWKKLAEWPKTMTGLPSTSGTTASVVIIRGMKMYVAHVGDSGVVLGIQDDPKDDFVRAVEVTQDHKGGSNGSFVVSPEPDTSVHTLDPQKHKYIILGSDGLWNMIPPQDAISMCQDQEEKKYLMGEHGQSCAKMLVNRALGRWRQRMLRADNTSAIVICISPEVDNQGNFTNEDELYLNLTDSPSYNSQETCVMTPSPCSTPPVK
Experimental: (§1) The purified protein constructs were mixed in the assay buffer containing 25 mM HEPES pH 7.5, 10 mM MgCl2, 150 mM NaCl. The sample preparation for the DSF assay included incubating the protein constructs (final concentration 0.2–0.4 mg/mL) with either DMSO alone (control) or with 40 µM GSK2830371 for 30 min before the addition of the Sypro orange dye (final concentration 10×). The final reaction volume of 10 µL was pipetted into a 384 multi-well clear plate (Light Cycler 480), sealed using a foil and spun down at 1000 × g for 2 min. The fluorescence emission intensity of the Sypro Orange dye was monitored in a LightCycler-480 instrument by running the Protein Melt program. The program was run in a continuous acquisition mode from 25 °C to 95 °C with a ramp rate of 0.06 °C/s (with 10 acquisitions/°C). The data (first derivative of the fluorescence signal as a function of temperature) was analyzed using the LightCycler-480 software for measuring the Tm values with and without the compound. A separate control with buffer alone and buffer with compound was run in the same plate to subtract out the potential interactions of the buffer components and/or the compound with the dye.

[2] = molecular target: T2, PPM1DΔhinge (Homo sapiens, UniProt O15297, DEL155-163/G166S/M164G/T165G); assay: Differential scanning fluorimetry (DSF); type: binding; conditions: PPM1D Dhinge, in °C (unit assumed)
T2 construct: PPM1D1–154-GGS-167–420 (PPM1D∆hinge); His(6)-SUMO (N, cleaved yes); made in house; host or cells: E. coli BL21 (DE3)
T2 sequence (O15297 with tags, fused parts or gaps DEL155-163/M164G/T165G/G166S): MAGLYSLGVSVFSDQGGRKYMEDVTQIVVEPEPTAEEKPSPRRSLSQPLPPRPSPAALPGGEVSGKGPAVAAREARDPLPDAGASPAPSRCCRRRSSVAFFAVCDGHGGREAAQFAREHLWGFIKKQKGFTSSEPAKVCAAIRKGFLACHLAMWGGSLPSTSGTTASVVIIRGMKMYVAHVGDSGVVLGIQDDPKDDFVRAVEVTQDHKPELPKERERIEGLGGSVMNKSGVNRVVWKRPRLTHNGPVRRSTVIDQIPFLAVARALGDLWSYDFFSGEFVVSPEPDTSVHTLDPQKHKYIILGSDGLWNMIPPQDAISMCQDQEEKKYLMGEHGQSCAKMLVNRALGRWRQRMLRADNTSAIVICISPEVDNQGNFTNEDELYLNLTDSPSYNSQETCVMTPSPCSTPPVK
Experimental: as §1

Cc1ncc(Cl)cc1NCc1ccc(C(=O)N[C@@H](CC2CCCC2)C(=O)NC2CC2)s1 [GSK2830371]
DSF melting temperature with GSK2830371 [1]: 63.0141 and 62.619 and 62.5754 and 62.548 | DSF melting temperature with GSK2830371, Average ([2]; average of 4 trials): 55.5129 | DSF melting temperature with GSK2830371 ([2]; individual trials): 55.7617 and 55.9693 and 55.1773 and 55.1434
